Reference: patent publication US20020137929A1, “1 - (3-heterocyclylphenyl) isothiourea, -isourea, -guanidine and -amidine herbicidal agents” (Intellectual Property Department, BASF Aktiengesellschaft, priority 1998, published 2002)

Tests used:
[1] = test system: CASOB (Sicklepod); test: Postemergence herbicidal evaluation; assay type: in vivo, Cassia obtusifolia; settings: postemergence
In short: (§1)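 Two-week-old seedlings sprayed with compound in 50/50 acetone/water plus 0.5% TWEEN 20, at about 0.0156 to 0.500 kg/ha, nozzle at 40 psi. Kept in greenhouse; rated visually 4-5 weeks after treatment on a 0-9 scale versus control, repeat tests averaged.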

[2] = test system: ECHCG (Barnyardgrass); test: Postemergence herbicidal evaluation; assay type: in vivo, Echinochloa crus-galli; settings: postemergence
In short: as §1

[3] = test system: ORYSAT (Rice, Tebonnet); test: Postemergence herbicidal evaluation; assay type: in vivo, Oryza sativa, (L.) Tebonnet; settings: postemergence
In short: as §1

[4] = test system: TRZAWR (Wheat, Winter, cv Riband); test: Postemergence herbicidal evaluation; assay type: in vivo, Triticum aestivum; settings: postemergence
In short: as §1

[5] = test system: ABUTH (Velvetleaf); test: Preemergence herbicidal evaluation; assay type: in vivo, Abutilon theophrasti; settings: rated 4-5 weeks after treatment
In short: (§2)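 Scores (0–9) reflect visual comparison with control plants for stand, vigor, malformation, size and chlorosis. Compound was applied to the soil after sowing, before emergence, as an aqueous acetone spray (about 0.0156–0.500 kg/ha), and cups were kept in a greenhouse for 4–5 weeks.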

[6] = test system: AMBEL (Ragweed, Common); test: Preemergence herbicidal evaluation; assay type: in vivo, Ambrosia artemisifolia; settings: rated 4-5 weeks after treatment
In short: as §2

[7] = test system: CASOB (Sicklepod); test: Preemergence herbicidal evaluation; assay type: in vivo, Cassia obtusifolia; settings: rated 4-5 weeks after treatment
In short: as §2

[8] = test system: ORYSAT (Rice, Tebonnet); test: Preemergence herbicidal evaluation; assay type: in vivo, Oryza sativa, (L.) Tebonnet; settings: rated 4-5 weeks after treatment
In short: as §2

[9] = test system: TRZAWR (Wheat, Winter, cv Riband); test: Preemergence herbicidal evaluation; assay type: in vivo, Triticum aestivum; settings: rated 4-5 weeks after treatment
In short: as §2

[10] = test system: ZEAMX (Corn, Field); test: Preemergence herbicidal evaluation; assay type: in vivo, Zea mays; settings: rated 4-5 weeks after treatment
In short: as §2

[11] = test system: ECHORC (Watergrass (Calif.)); test: Preemergence weed control under flooded paddy conditions; assay type: in vivo, Echinochloa oryzoides; settings: rated 3-4 weeks after treatment
In short: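 Silt loam, seeds in top 0.5 cm; flood held 1.5-3 cm; test cpd as acetone/water 50/50 into flood water, ~0.0313-0.500 kg/ha a.i.; greenhouse 3-4 wk; visual 0-9 score vs control.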

[12] = test system: MOOVA (Monochoria); test: as above; assay type: in vivo, Monochoria vaginalis; settings: rated 3-4 weeks after treatment
In short: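 Values are visual 0-9 scores against a control for a preemergence application into paddy flood water at about 0.0313 to 0.500 kg/ha. Greenhouse duration was three to four weeks.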

C=CCN1C(=O)C(CC(=O)NS(=O)(=O)C(C)C)SC1=Nc1cc(-n2c(=O)cc(C(F)(F)F)n(C)c2=O)c(F)cc1Cl (centres unmarked) [Compound 118, 3-Allyl-2-{{2-chloro-5-[3,6-dihydro-3-methyl-2,6-dioxo-4-(trifluoromethyl)-1(2H)-pyrimidinyl]-4-fluorophenyl}imino}-N-(isopropylsulfonyl)-4-oxo-5-thiazolidineacetamide]
herbicidal rating CASOB ([1]; rate 0.0158 kg/ha): 0.0 | herbicidal rating CASOB ([1]; rate 0.0315 kg/ha): 0.0 | herbicidal rating CASOB ([1]; rate 0.0630 kg/ha): 0.0 | herbicidal rating ECHCG ([2]; rate 0.0158 kg/ha): 0.0 | herbicidal rating ECHCG ([2]; rate 0.0315 kg/ha): 1.0 | herbicidal rating ECHCG ([2]; rate 0.0630 kg/ha): 1.0 | herbicidal rating ORYSAT ([3]; rate 0.0158 kg/ha): 2.0 | herbicidal rating ORYSAT ([3]; rate 0.0315 kg/ha): 2.0 | herbicidal rating ORYSAT ([3]; rate 0.0630 kg/ha): 2.0 | herbicidal rating TRZAWR ([4]; rate 0.0158 kg/ha): 2.0 | herbicidal rating TRZAWR ([4]; rate 0.0315 kg/ha): 2.0 | herbicidal rating TRZAWR ([4]; rate 0.0630 kg/ha): 2.0 | Preemergence herbicidal rating ABUTH ([5]; rate 0.0625 kg/ha): 9.0 | Preemergence herbicidal rating ABUTH ([5]; rate 0.1250 kg/ha): 9.0 | Preemergence herbicidal rating ABUTH ([5]; rate 0.2500 kg/ha): 7.0 | Preemergence herbicidal rating AMBEL ([6]; rate 0.0625 kg/ha): 0.0 | Preemergence herbicidal rating AMBEL ([6]; rate 0.1250 kg/ha): 0.0 | Preemergence herbicidal rating AMBEL ([6]; rate 0.2500 kg/ha): 6.0 | Preemergence herbicidal rating CASOB ([7]; rate 0.0625 kg/ha): 0.0 | Preemergence herbicidal rating CASOB ([7]; rate 0.2500 kg/ha): 4.0 | Preemergence herbicidal rating ORYSAT ([8]; rate 0.0625 kg/ha): 0.0 | Preemergence herbicidal rating ORYSAT ([8]; rate 0.1250 kg/ha): 0.0 | Preemergence herbicidal rating ORYSAT ([8]; rate 0.2500 kg/ha): 0.0 | Preemergence herbicidal rating TRZAWR ([9]; rate 0.0625 kg/ha): 0.0 | Preemergence herbicidal rating TRZAWR ([9]; rate 0.1250 kg/ha): 0.0 | Preemergence herbicidal rating TRZAWR ([9]; rate 0.2500 kg/ha): 0.0 | Preemergence herbicidal rating ZEAMX ([10]; rate 0.0625 kg/ha): 0.0 | Preemergence herbicidal rating ZEAMX ([10]; rate 0.1250 kg/ha): 0.0 | Preemergence herbicidal rating ZEAMX ([10]; rate 0.2500 kg/ha): 0.0 | herbicidal effect rating, ECHORC ([11]; 0.0313 kg/ha): 0.0 | herbicidal effect rating, ECHORC ([11]; 0.0625 kg/ha): 0.0 | herbicidal effect rating, ECHORC ([11]; 0.1250 kg/ha): 4.0 | herbicidal effect rating, ECHORC ([11]; 0.2500 kg/ha): 6.0 | herbicidal effect rating, MOOVA ([12]; 0.0313 kg/ha): 4.0 | herbicidal effect rating, MOOVA ([12]; 0.0625 kg/ha): 4.0 | herbicidal effect rating, MOOVA ([12]; 0.1250 kg/ha): 6.0 | herbicidal effect rating, MOOVA ([12]; 0.2500 kg/ha): 7.0

CCOC(=O)CN1C(=O)C(CC(=O)O)SC1=Nc1cc(-n2nc(C)n(C(F)F)c2=O)c(F)cc1Cl (centres unmarked) [Compound 112, 2-{{2-Chloro-5-[4-(difluoromethyl)-4,5-dihydro-3-methyl-5-oxo-1H-1,2,4-triazol-1-yl]-4-fluorophenyl}imino}-4-oxo-3,5-thiazolidinediacetic acid, 3-ethyl ester]
herbicidal rating CASOB ([1]; rate 0.0158 kg/ha): 1.0 | herbicidal rating CASOB ([1]; rate 0.0315 kg/ha): 1.0 | herbicidal rating CASOB ([1]; rate 0.0630 kg/ha): 2.0 | herbicidal rating ECHCG ([2]; rate 0.0158 kg/ha): 2.0 | herbicidal rating ECHCG ([2]; rate 0.0315 kg/ha): 4.0 | herbicidal rating ECHCG ([2]; rate 0.0630 kg/ha): 4.0 | herbicidal rating ORYSAT ([3]; rate 0.0158 kg/ha): 2.0 | herbicidal rating ORYSAT ([3]; rate 0.0315 kg/ha): 2.0 | herbicidal rating ORYSAT ([3]; rate 0.0630 kg/ha): 2.5 | herbicidal rating TRZAWR ([4]; rate 0.0158 kg/ha): 2.0 | herbicidal rating TRZAWR ([4]; rate 0.0315 kg/ha): 2.0 | herbicidal rating TRZAWR ([4]; rate 0.0630 kg/ha): 3.0 | Preemergence herbicidal rating ABUTH ([5]; rate 0.0313 kg/ha): 0.0 | Preemergence herbicidal rating ABUTH ([5]; rate 0.0625 kg/ha): 0.0 | Preemergence herbicidal rating ABUTH ([5]; rate 0.2500 kg/ha): 1.0 | Preemergence herbicidal rating AMBEL ([6]; rate 0.0313 kg/ha): 0.0 | Preemergence herbicidal rating AMBEL ([6]; rate 0.0625 kg/ha): 0.0 | Preemergence herbicidal rating AMBEL ([6]; rate 0.1250 kg/ha): 0.0 | Preemergence herbicidal rating AMBEL ([6]; rate 0.2500 kg/ha): 0.0 | Preemergence herbicidal rating CASOB ([7]; rate 0.0313 kg/ha): 0.0 | Preemergence herbicidal rating CASOB ([7]; rate 0.0625 kg/ha): 0.0 | Preemergence herbicidal rating CASOB ([7]; rate 0.1250 kg/ha): 0.0 | Preemergence herbicidal rating CASOB ([7]; rate 0.2500 kg/ha): 0.0 | Preemergence herbicidal rating ORYSAT ([8]; rate 0.0313 kg/ha): 0.0 | Preemergence herbicidal rating ORYSAT ([8]; rate 0.0625 kg/ha): 0.0 | Preemergence herbicidal rating ORYSAT ([8]; rate 0.1250 kg/ha): 0.0 | Preemergence herbicidal rating ORYSAT ([8]; rate 0.2500 kg/ha): 2.0 | Preemergence herbicidal rating TRZAWR ([9]; rate 0.0313 kg/ha): 0.0 | Preemergence herbicidal rating TRZAWR ([9]; rate 0.0625 kg/ha): 0.0 | Preemergence herbicidal rating TRZAWR ([9]; rate 0.1250 kg/ha): 0.0 | Preemergence herbicidal rating TRZAWR ([9]; rate 0.2500 kg/ha): 1.0 | Preemergence herbicidal rating ZEAMX ([10]; rate 0.0313 kg/ha): 0.0 | Preemergence herbicidal rating ZEAMX ([10]; rate 0.0625 kg/ha): 0.0 | Preemergence herbicidal rating ZEAMX ([10]; rate 0.1250 kg/ha): 1.0 | Preemergence herbicidal rating ZEAMX ([10]; rate 0.2500 kg/ha): 4.0 | ECHORC herbicidal effect rating ([11]; 0.0313 kg/ha): 0.0 | ECHORC herbicidal effect rating ([11]; 0.0625 kg/ha): 3.0 | ECHORC herbicidal effect rating ([11]; 0.1250 kg/ha): 3.0 | ECHORC herbicidal effect rating ([11]; 0.2500 kg/ha): 3.0 | MOOVA herbicidal effect rating ([12]; 0.0313 kg/ha): 9.0 | MOOVA herbicidal effect rating ([12]; 0.0625 kg/ha): 9.0 | MOOVA herbicidal effect rating ([12]; 0.1250 kg/ha): 9.0 | MOOVA herbicidal effect rating ([12]; 0.2500 kg/ha): 9.0
